From patent US5032597A, “Method of using phenylquinolinecarboxylic acids and derivatives for lymthoid leukemia treatment in a mammal” (priority 1987, dated 1991)
In brackets after ≈: the same amount, converted by molar mass. Read-outs that look alike come from different tables or passages of the source.

Assays:
[1] = test system: L1210 leukemia; experiment: Lymphoid Leukemia L1210, survival of tumored mice; assay type: in vivo, CD2F1 mice; details: for response vs control in vivo at 37.5 mg/kg: 37.5 mg/kg i.p.; for response vs control in vivo at 200 mg/kg: 200 mg/kg i.p.; for response vs control in vivo at 400 mg/kg: 400 mg/kg i.p.
Summary of the method: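 Male CD2 F1 mice, six per group, received 10^5 L1210 cells i.p. on day 0. Compounds in hydroxypropylcellulose, saline/Tween 80 or saline were given i.p. at various doses once daily on days 1-9, with vehicle controls.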

[2] = test system: human colon carcinoma cells HCT-15; experiment: Human colon tumor test in vitro, HCT-15 cell growth inhibition; assay type: cell-based; details: for IC50: Homo sapiens, HCT-15, 72 h, read-out: in vitro HCT-15 ID50 (50 percent inhibition of number of doublings); for in vitro HCT-15 ID50 (50 percent inhibition of number of doublings): 4320 min
Experimental: The compound of this invention were also tested for their ability to inhibit the growth of human colon carcinoma cells in vitro.
The human colon carcinoma cells, designated HCT-15, were derived from a specimen of an adenocarcinoma of human colon removed during surgery. The cells were grown in Roswell Park Medical Institute (RPMI) Medium 1640 supplemented with 10% heat inactivated fetal calf serum, penicillin (100 units/ml), streptomycin (100 μg/ml), gentamicin (20 μg/ml), fungizone (25 μg/ml), 0.075 percent sodium bicarbonate, […] 4-(2-hydroxyethyl)-1-piperazineethanesulfonic acid and […] N-tris(hydroxymethyl)methylglycine. […] On day 1 cells from sample dishes were harvested using trypsin (0.25%) treatment and counted with a hemocytometer to determine the number of cells per dish at the time of the addition of the compounds. Compounds of this invention were added in varying concentrations to other cultures. On day 4, treated and control cultures were harvested by trypsin treatment and the number of cells was determined. The number of doublings for the control cells was determined from the cell numbers on days 1 and 4. The ID50, the concentration of compound required to inhibit by 50 percent the number of doublings, was then calculated from the dose-response curve in which cell numbers were plotted on log-log paper against compound concentrations in micrograms per ml.

[3] = HCT-15 cells, compound day 1 to day 4
[4] = Mus musculus, L1210, ip, 720 h, 25 mg/kg i.p., nonoptimal Q1DX9 instead of Q3DX9, read-out: L1210 Leukemia % T/C (median survival time)
[5] = Mus musculus, L1210, ip, 720 h, nonoptimal Q1DX9 instead of Q3DX9, read-out: L1210 Leukemia % T/C (median survival time)
[6] = Mus musculus, L1210, ip, 720 h, read-out: L1210 Leukemia % T/C (median survival time)
[7] = Mus musculus, L1210, ip, 720 h, 100 mg/kg i.p., read-out: L1210 Leukemia % T/C (median survival time)

Cc1c(-c2ccc(-c3ccccc3F)cc2)nc2ccc(F)cc2c1C(=O)[O-].[Na+] [Example 118, Sodium 2-(2'-Fluoro-1,1'-biphenyl-4-yl)-6-fluoro-3-methylquinoline-4-carboxylate]
response vs control in vivo at 25 mg/kg ([1]; Mus musculus, L1210, ip, 720 h, read-out: L1210 Leukemia % T/C (median survival time), 25 mg/kg i.p.): 179%
IC50 [2]: 0.017 µg/mL

Cc1c(-c2ccc(-c3ccc(F)cc3F)cc2)nc2ccc(F)cc2c1C(=O)O [Example 188]
response vs control in vivo at 12.5 mg/kg ([1]; Mus musculus, L1210, ip, 720 h, 12.5 mg/kg i.p., read-out: L1210 Leukemia % T/C (median survival time)): 187%
IC50 [2, 3]: < 0.01 µg/mL

Cc1c(-c2ccc(-c3ccccc3)cc2)nc2cc(Cl)c(Cl)cc2c1C(=O)O [Example 137]
response vs control in vivo at 50 mg/kg ([1]; Mus musculus, L1210, ip, 720 h, 50 mg/kg i.p., nonoptimal Q1DX9 instead of Q3DX9, read-out: L1210 Leukemia % T/C (median survival time)): 107%
in vitro HCT-15 ID50 (50 percent inhibition of number of doublings) [2, 3]: > 5.00 µg/mL

CCc1c(-c2ccc(C(C)CC)cc2)nc2ccc(F)cc2c1C(=O)O (stereo not shown) [Example 107]
response vs control in vivo at 25 mg/kg [1, 4]: 116%
in vitro HCT-15 ID50 (50 percent inhibition of number of doublings) [2, 3]: 0.09 µg/mL

CCCCCCCCCCc1ccc(-c2nc3ccc(F)cc3c(C(=O)O)c2C)cc1 [Example 97]
response vs control in vivo at 25 mg/kg [1, 4]: 110%
in vitro HCT-15 ID50 (50 percent inhibition of number of doublings) [2, 3]: 0.14 µg/mL

Cc1ccc2nc(-c3ccc(C4CCCCC4)cc3)c(C)c(C(=O)O)c2c1 [Example 96]
response vs control in vivo at 37.5 mg/kg [1, 5]: 97%
in vitro HCT-15 ID50 (50 percent inhibition of number of doublings) [2, 3]: < 0.50 µg/mL

Cc1c(-c2ccc(Sc3ccccc3)cc2)nc2ccc(Cl)cc2c1C(=O)O [Example 173]
response vs control in vivo at 25 mg/kg [1, 4]: 122%
in vitro HCT-15 ID50 (50 percent inhibition of number of doublings) [2, 3]: < 0.50 µg/mL

Cc1c(-c2ccc(-c3ccc(O)cc3)cc2)nc2ccc(Cl)cc2c1C(=O)O [Example 192, 6-Chloro-2-(4'-hydroxy-1,1'biphenyl-4-yl)-3-methyl-4-quinolinecarboxylic acid]
response vs control in vivo at 200 mg/kg [1, 6]: 166%
IC50 [2, 3]: > 1 µg/mL

Cc1c(-c2ccc(Oc3ccc(Cl)cc3)cc2)nc2ccc(F)cc2c1C(=O)O [Example 119]
L1210 Leukemia % T/C (median survival time) ([1]; 18 mg/kg i.p.): 170%
in vitro HCT-15 ID50 (50 percent inhibition of number of doublings) [2, 3]: < 0.50 µg/mL

Cc1c(-c2ccc(-c3ccccc3)c(F)c2)nc2ccc(F)cc2c1C(=O)O [Example 207]
L1210 Leukemia % T/C (median survival time) ([1]; 25 mg/kg i.p.): 154%
IC50 [2, 3]: 0.02 µg/mL (≈ 0.0533 µM)

Cc1c(-c2ccc(-c3ccccc3)cc2)nc2cc(F)ccc2c1C(=O)O [Example 87]
response vs control in vivo at 100 mg/kg [1, 7]: 146%
IC50 [2, 3]: < 0.5 µg/mL

Cc1cc2c(C(=O)O)c(C)c(-c3ccc(-c4ccccc4)cc3)nc2cc1Cl [Example 148]
response vs control in vivo at 37.5 mg/kg [1, 5]: 102%
in vitro HCT-15 ID50 (50 percent inhibition of number of doublings) [2, 3]: > 5.00 µg/mL

Cc1c(-c2ccc(-c3ccccc3)cc2)nc2cc(Cl)cc(Cl)c2c1C(=O)O [Example 82]
response vs control in vivo at 100 mg/kg [1, 7]: 144%
IC50 [2, 3]: > 1 µg/mL

O=C(O)c1cc(-c2ccc(C3CCCCC3)cc2)nc2ccc(F)cc12 [Example 5]
response vs control in vivo at 400 mg/kg [1, 6]: 141%
IC50 [2, 3]: 0.02 µg/mL (≈ 0.0572 µM)

Cc1c(-c2ccc(-c3ccccc3)cc2)nc2cc(Cl)ccc2c1C(=O)O [Example 49]
response vs control in vivo at 200 mg/kg [1, 6]: 174%
IC50 [2, 3]: > 5 µg/mL

Cc1c(-c2ccc(C3CCCCC3)cc2)nc2ccc(Cl)cc2c1C(=O)O [Example 3]
response vs control in vivo at 400 mg/kg [1, 6]: 207%
in vitro HCT-15 ID50 (50 percent inhibition of number of doublings) [2, 3]: 0.50 µg/mL

CCc1ccc2nc(-c3ccc(-c4ccccc4)cc3)c(C)c(C(=O)O)c2c1 [Example 51]
L1210 Leukemia % T/C (median survival time) ([1]; 75 mg/kg i.p.): 173%
IC50 [2, 3]: < 0.5 µg/mL

Cc1c(-c2ccc(-c3ccccc3)cc2)nc2ccc(C(F)(F)F)cc2c1C(=O)O [Example 56]
response vs control in vivo at 75 mg/kg ([1]; Mus musculus, L1210, ip, 720 h, 75 mg/kg i.p., read-out: L1210 Leukemia % T/C (median survival time)): 176%
IC50 [2, 3]: < 0.5 µg/mL

Cc1ccc(-c2ccc(-c3nc4ccc(F)c(Cl)c4c(C(=O)O)c3C)cc2)cc1 [Example 168]
L1210 Leukemia % T/C (median survival time) ([1]; 100 mg/kg i.p.): 148%
IC50 [2, 3]: 0.04 µg/mL (≈ 0.0986 µM)

Cc1c(-c2ccc(-c3ccccc3)cc2)nc2ccc(Cl)cc2c1C(=O)O [Example 171]
L1210 Leukemia % T/C (median survival time) ([1]; 100 mg/kg i.p.): 164%
in vitro HCT-15 ID50 (50 percent inhibition of number of doublings) [2, 3]: < 0.50 µg/mL
